Laboratory results reported in patent US10004701B2, “Methods and compositions for treating infection” (UNIVERSITY OF ROCHESTER, priority 2012, dated 2018).
Like-named read-outs stand apart in the source and are kept apart here.

What was measured:
Assay in all cases: AK assay 384-well format, Prestwick library screening
[1] = tested on: E. faecium; assay type: cell-based, Enterococcus faecium; conditions: 50 μM final drug concentration; for fold induction at 50 µM: Enterococcus faecium, 3 h
[2] = tested on: S. aureus strain USA300-0114; assay type: cell-based, Staphylococcus aureus; conditions: 50 μM final drug concentration; for fold induction at 50 µM: Staphylococcus aureus, USA300, 3 h
[3] = tested on: K. pneumoniae; assay type: cell-based, Klebsiella pneumoniae; conditions: 50 μM final drug concentration; for fold induction at 50 µM: Klebsiella pneumoniae, 3 h
[4] = tested on: A. baumannii strain 98-37-09; assay type: cell-based, Acinetobacter baumannii; conditions: 50 μM final drug concentration; for fold induction at 50 µM: Acinetobacter baumannii, 983709, 3 h
[5] = tested on: P. aeruginosa; assay type: cell-based, Pseudomonas aeruginosa; conditions: 50 μM final drug concentration; for fold induction at 50 µM: Pseudomonas aeruginosa, 3 h
[6] = tested on: E. cloacae; assay type: cell-based, Enterobacter cloacae; conditions: 50 μM final drug concentration; for fold induction at 50 µM: Enterobacter cloacae, 3 h
[7] = tested on: E. coli; assay type: cell-based, Escherichia coli; conditions: 50 μM final drug concentration; for fold induction at 50 µM: Escherichia coli, 3 h
[8] = planktonic, cutoff for positive 3-fold increase
[9] = planktonic E. faecium, cutoff for positive-scoring molecules 3-fold increase
[10] = planktonic S. aureus, cutoff for positive-scoring molecules 3-fold increase
[11] = planktonic K. pneumoniae, cutoff for positive-scoring molecules 3-fold increase
[12] = planktonic A. baumannii, cutoff for positive-scoring molecules 3-fold increase
[13] = planktonic P. aeruginosa, cutoff for positive-scoring molecules 3-fold increase
[14] = planktonic E. cloacae, cutoff for positive-scoring molecules 3-fold increase
[15] = planktonic E. coli, cutoff for positive-scoring molecules 3-fold increase
[16] = planktonic, cutoff for positive-scoring molecules 3-fold increase

COc1ccc2c(c1)[C@]13CCCC[C@@H]1[C@H](C2)N(C)CC3
fold induction at 50 µM ([1]; planktonic E. faecium, […], read-out: AK-based Prestwick Library Screening Results, E. faecium (increase in extracellular AK activity)): 0.9
fold induction at 50 µM ([2]; planktonic S. aureus, […], read-out: AK-based Prestwick Library Screening Results, S. aureus (increase in extracellular AK activity)): 0.7
fold induction at 50 µM ([3]; planktonic K. pneumoniae, […], read-out: AK-based Prestwick Library Screening Results, K. pneumoniae (increase in extracellular AK activity)): 0.7
fold induction at 50 µM ([4]; planktonic A. baumannii, […], read-out: AK-based Prestwick Library Screening Results, A. baumannii (increase in extracellular AK activity)): 0.8
fold induction at 50 µM ([5]; planktonic P. aeruginosa, […], read-out: AK-based Prestwick Library Screening Results, P. aeruginosa (increase in extracellular AK activity)): 0.8
fold induction at 50 µM ([6]; planktonic E. cloacae, […], read-out: AK-based Prestwick Library Screening Results, E. cloacae (increase in extracellular AK activity)): 1.1
fold induction at 50 µM ([7]; planktonic E. coli, […], read-out: AK-based Prestwick Library Screening Results, E. coli (increase in extracellular AK activity)): 0.8

COc1cc2c(cc1OC)C(C)NCC2.Cl (stereo not drawn)
AK-based Prestwick Library Screening Results, E. faecium (fold increase in extracellular AK activity) [1, 8]: 0.9
AK-based Prestwick Library Screening Results, S. aureus (fold increase in extracellular AK activity) [2, 8]: 1.0
AK-based Prestwick Library Screening Results, K. pneumoniae (fold increase in extracellular AK activity) [3, 8]: 1.0
AK-based Prestwick Library Screening Results, A. baumannii (fold increase in extracellular AK activity) [4, 8]: 1.0
AK-based Prestwick Library Screening Results, P. aeruginosa (fold increase in extracellular AK activity) [5, 8]: 1.2
AK-based Prestwick Library Screening Results, E. cloacae (fold increase in extracellular AK activity) [6, 8]: 1.5
AK-based Prestwick Library Screening Results, E. coli (fold increase in extracellular AK activity) ([7]; planktonic, […]): 1.3

Cc1ccc(Cl)c(Nc2ccccc2C(=O)O)c1Cl
fold induction at 50 µM ([1]; planktonic E. faecium, 384-well, cutoff for positive-scoring molecules 3-fold increase, read-out: AK-based Prestwick Library Screening Results: E. faecium (increase in extracellular AK activity)): 1.2
fold induction at 50 µM ([2]; planktonic S. aureus, 384-well, cutoff for positive-scoring molecules 3-fold increase, read-out: AK-based Prestwick Library Screening Results: S. aureus (increase in extracellular AK activity)): 0.6
fold induction at 50 µM ([3]; planktonic K. pneumoniae, 384-well, cutoff for positive-scoring molecules 3-fold increase, read-out: AK-based Prestwick Library Screening Results: K. pneumoniae (increase in extracellular AK activity)): 1
fold induction at 50 µM ([4]; planktonic A. baumannii, 384-well, cutoff for positive-scoring molecules 3-fold increase, read-out: AK-based Prestwick Library Screening Results: A. baumannii (increase in extracellular AK activity)): 1.2
fold induction at 50 µM ([5]; planktonic P. aeruginosa, 384-well, cutoff for positive-scoring molecules 3-fold increase, read-out: AK-based Prestwick Library Screening Results: P. aeruginosa (increase in extracellular AK activity)): 1.2
fold induction at 50 µM ([6]; planktonic E. cloacae, 384-well, cutoff for positive-scoring molecules 3-fold increase, read-out: AK-based Prestwick Library Screening Results: E. cloacae (increase in extracellular AK activity)): 1.4
fold induction at 50 µM ([7]; planktonic E. coli, 384-well, cutoff for positive-scoring molecules 3-fold increase, read-out: AK-based Prestwick Library Screening Results: E. coli (increase in extracellular AK activity)): 1.1

CC(C)NCC(O)c1cc(O)cc(O)c1.CC(C)NCC(O)c1cc(O)cc(O)c1.O=S(=O)(O)O (stereo not drawn)
AK-based Prestwick Library Screening Results, E. faecium (increase in extracellular AK activity) [1, 9]: 0.9
AK-based Prestwick Library Screening Results, S. aureus (increase in extracellular AK activity) [2, 10]: 0.6
AK-based Prestwick Library Screening Results, K. pneumoniae (increase in extracellular AK activity) [3, 11]: 0.7
AK-based Prestwick Library Screening Results, A. baumannii (increase in extracellular AK activity) [4, 12]: 0.9
AK-based Prestwick Library Screening Results, P. aeruginosa (increase in extracellular AK activity) [5, 13]: 0.9
AK-based Prestwick Library Screening Results, E. cloacae (increase in extracellular AK activity) [6, 14]: 1.0
AK-based Prestwick Library Screening Results, E. coli (increase in extracellular AK activity) [7, 15]: 1.0

O=C(O)Cc1cc(I)c(Oc2ccc(O)c(I)c2)c(I)c1
AK-based Prestwick Library Screening Results: E. faecium (increase in extracellular AK activity) ([1]; planktonic E. faecium, 384-well, cutoff for positive-scoring molecules 3-fold increase): 1.3
AK-based Prestwick Library Screening Results: S. aureus (increase in extracellular AK activity) ([2]; planktonic S. aureus, 384-well, cutoff for positive-scoring molecules 3-fold increase): 0.4
AK-based Prestwick Library Screening Results: K. pneumoniae (increase in extracellular AK activity) ([3]; planktonic K. pneumoniae, 384-well, cutoff for positive-scoring molecules 3-fold increase): 1.0
AK-based Prestwick Library Screening Results: A. baumannii (increase in extracellular AK activity) ([4]; planktonic A. baumannii, 384-well, cutoff for positive-scoring molecules 3-fold increase): 1.1
AK-based Prestwick Library Screening Results: P. aeruginosa (increase in extracellular AK activity) ([5]; planktonic P. aeruginosa, 384-well, cutoff for positive-scoring molecules 3-fold increase): 1.2
AK-based Prestwick Library Screening Results: E. cloacae (increase in extracellular AK activity) ([6]; planktonic E. cloacae, 384-well, cutoff for positive-scoring molecules 3-fold increase): 1.5
AK-based Prestwick Library Screening Results: E. coli (increase in extracellular AK activity) ([7]; planktonic E. coli, 384-well, cutoff for positive-scoring molecules 3-fold increase): 1.1

CN(N=O)C(=O)N[C@H]1C(O)O[C@H](CO)[C@@H](O)[C@@H]1O (mixture of isomers) [Streptozotocin]
AK-based Prestwick Library Screening Results, E. faecium (fold increase in extracellular AK activity) [1, 16]: 2.6
AK-based Prestwick Library Screening Results, S. aureus (fold increase in extracellular AK activity) [2, 16]: 1.2
AK-based Prestwick Library Screening Results, K. pneumoniae (fold increase in extracellular AK activity) [3, 16]: 1.4
AK-based Prestwick Library Screening Results, A. baumannii (fold increase in extracellular AK activity) [4, 16]: 0.7
AK-based Prestwick Library Screening Results, P. aeruginosa (fold increase in extracellular AK activity) [5, 16]: 0.7
AK-based Prestwick Library Screening Results, E. cloacae (fold increase in extracellular AK activity) [6, 16]: 0.7
AK-based Prestwick Library Screening Results, E. coli (fold increase in extracellular AK activity) [7, 16]: 0.7

Cl.NCC(O)c1ccc(O)cc1 (racemic) [(+,−)-Octopamine hydrochloride]
AK-based Prestwick Library Screening Results, E. faecium (fold increase in extracellular AK activity) ([1]; […]): 1.0
AK-based Prestwick Library Screening Results, S. aureus (fold increase in extracellular AK activity) ([2]; […]): 1.3
AK-based Prestwick Library Screening Results, K. pneumoniae (fold increase in extracellular AK activity) ([3]; […]): 1.1
AK-based Prestwick Library Screening Results, A. baumannii (fold increase in extracellular AK activity) ([4]; […]): 1.3
AK-based Prestwick Library Screening Results, P. aeruginosa (fold increase in extracellular AK activity) ([5]; […]): 1.0
AK-based Prestwick Library Screening Results, E. cloacae (fold increase in extracellular AK activity) ([6]; […]): 1.4
AK-based Prestwick Library Screening Results, E. coli (fold increase in extracellular AK activity) ([7]; […]): 1.3

CNCC(O)c1ccc(O)cc1 (racemic) [(+,−)-Synephrine]
AK-based Prestwick library screening result, E. faecium (fold increase in extracellular AK activity) ([1]; planktonic E. faecium, positive cutoff 3-fold increase): 1.1
AK-based Prestwick library screening result, S. aureus (fold increase in extracellular AK activity) ([2]; planktonic S. aureus, positive cutoff 3-fold increase): 1.0
AK-based Prestwick library screening result, K. pneumoniae (fold increase in extracellular AK activity) ([3]; planktonic K. pneumoniae, positive cutoff 3-fold increase): 1.0
AK-based Prestwick library screening result, A. baumannii (fold increase in extracellular AK activity) ([4]; planktonic A. baumannii, positive cutoff 3-fold increase): 1.1
AK-based Prestwick library screening result, P. aeruginosa (fold increase in extracellular AK activity) ([5]; planktonic P. aeruginosa, positive cutoff 3-fold increase): 1.1
AK-based Prestwick library screening result, E. cloacae (fold increase in extracellular AK activity) ([6]; planktonic E. cloacae, positive cutoff 3-fold increase): 1.3
AK-based Prestwick library screening result, E. coli (fold increase in extracellular AK activity) ([7]; planktonic E. coli, positive cutoff 3-fold increase): 1.3

CN(Cc1cnc2nc(N)nc(N)c2n1)c1ccc(C(=O)N[C@@H](CCC(=O)O)C(=O)O)cc1 (racemic) [Amethopterin (R,S)]
AK-based Prestwick Library Screening Results, E. faecium (fold increase in extracellular AK activity) [1, 8]: 0.9
AK-based Prestwick Library Screening Results, S. aureus (fold increase in extracellular AK activity) [2, 8]: 1.0
AK-based Prestwick Library Screening Results, K. pneumoniae (fold increase in extracellular AK activity) [3, 8]: 0.8
AK-based Prestwick Library Screening Results, A. baumannii (fold increase in extracellular AK activity) [4, 8]: 0.9
AK-based Prestwick Library Screening Results, P. aeruginosa (fold increase in extracellular AK activity) [5, 8]: 1.1
AK-based Prestwick Library Screening Results, E. cloacae (fold increase in extracellular AK activity) [6, 8]: 1.3
AK-based Prestwick Library Screening Results, E. coli (fold increase in extracellular AK activity) [7, 8]: 1.1

CC(=O)NC(CC(=O)O)C(=O)O (racemic) [Aspartic acid, N-acetyl (R,S)]
AK-based Prestwick Library Screening Results, E. faecium (increase in extracellular AK activity) [1, 9]: 0.9
AK-based Prestwick Library Screening Results, S. aureus (increase in extracellular AK activity) [2, 10]: 0.5
AK-based Prestwick Library Screening Results, K. pneumoniae (increase in extracellular AK activity) [3, 11]: 0.5
AK-based Prestwick Library Screening Results, A. baumannii (increase in extracellular AK activity) [4, 12]: 0.6
AK-based Prestwick Library Screening Results, P. aeruginosa (increase in extracellular AK activity) [5, 13]: 0.6
AK-based Prestwick Library Screening Results, E. cloacae (increase in extracellular AK activity) [6, 14]: 0.7
AK-based Prestwick Library Screening Results, E. coli (increase in extracellular AK activity) [7, 15]: 0.6

NCC(CC(=O)O)c1ccc(Cl)cc1 (racemic) [Baclofen (R,S)]
AK-based Prestwick Library Screening Results, E. faecium (increase in extracellular AK activity) ([1]; 384-well format, […]): 0.8
AK-based Prestwick Library Screening Results, S. aureus (increase in extracellular AK activity) ([2]; 384-well format, […]): 0.4
AK-based Prestwick Library Screening Results, K. pneumoniae (increase in extracellular AK activity) ([3]; 384-well format, […]): 0.6
AK-based Prestwick Library Screening Results, A. baumannii (increase in extracellular AK activity) ([4]; 384-well format, […]): 0.4
AK-based Prestwick Library Screening Results, P. aeruginosa (increase in extracellular AK activity) ([5]; 384-well format, […]): 0.3
AK-based Prestwick Library Screening Results, E. cloacae (increase in extracellular AK activity) ([6]; 384-well format, […]): 0.3
AK-based Prestwick Library Screening Results, E. coli (increase in extracellular AK activity) ([7]; 384-well format, […]): 0.5

O.Oc1cc(O)c2c(c1)OC(c1ccc(O)c(O)c1)C(O)C2 (racemic) [Catechin-(+,−) hydrate]
AK-based Prestwick Library Screening Results, E. faecium (fold increase in extracellular AK activity) [1, 16]: 0.9
AK-based Prestwick Library Screening Results, S. aureus (fold increase in extracellular AK activity) [2, 16]: 0.7
AK-based Prestwick Library Screening Results, K. pneumoniae (fold increase in extracellular AK activity) [3, 16]: 0.6
AK-based Prestwick Library Screening Results, A. baumannii (fold increase in extracellular AK activity) [4, 16]: 0.7
AK-based Prestwick Library Screening Results, P. aeruginosa (fold increase in extracellular AK activity) [5, 16]: 0.6
AK-based Prestwick Library Screening Results, E. cloacae (fold increase in extracellular AK activity) [6, 16]: 1.0
AK-based Prestwick Library Screening Results, E. coli (fold increase in extracellular AK activity) [7, 16]: 0.7
